Measurements: patent US9540343B2 (Gilead Sciences, Inc., priority 2011, dated 2017)

How the values were obtained:
MT-4 cells = experiment: in vitro; conditions: uninfected MT-4 cells, same protocol as Test A, 5 days, CellTiter-Glo
Summary of the method: (§1)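 Cytoprotection read-out: CellTiter-Glo chemiluminescence after 5 days at 37 °C of HIV-IIIb-infected MT-4 cells (m.o.i. 0.003) with compound in 10-point 3-fold dilutions, quadruplicate, 10% FBS. Cytotoxicity (CC50) measured identically without virus.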

HIV-IIIb = experiment: Test A: Antiviral assay in MT4 cells; assay type: cell-based, HIV-1; conditions: MT-4 cells infected with HIV-IIIb, 5 days, CellTiter-Glo; for % inhibition at 2 μM: percent inhibition of virus-induced cell killing, from dose response curve at 2 uM drug; for inhibition at 2 µM: Human immunodeficiency virus 1, IIIB, MT4, 120 h, read-out: % inhibition at 2 μM, percent inhibition of virus-induced cell killing, from dose response curve at 2 uM drug
in vitro = experiment: in vitro
Summary of the method: as §1

[1] = human, uninfected MT-4 cells, CC50 (nM), same protocol as Test A, CellTiter-Glo

Compound	CC50 (MT-4 cells)	% inhibition at 2 μM (HIV-IIIb)	CC50 at 5 days (in vitro; [1])	inhibition at 2 µM (HIV-IIIb)	CC50 at 5 days (in vitro; human, CC50 (nM), uninfected MT-4 cells, same protocol as Test A, CellTiter-Glo)
NC(=O)c1cc(-c2cccnc2[C@H](Cc2cc(F)cc(F)c2)NC(=O)Cn2nc(C(F)(F)F)c3c2C(O)C2CC32)ccc1F (stereo partly drawn) [Example 155, 5-(2-((1S)-2-(3,5-difluorophenyl)-1-(2-(5-hydroxy-3-(trifluoromethyl)-3b,4,4a,5-tetrahydro-1H-cyclopropa[3,4]cyclopenta[1,2-c]pyrazol-1-yl)acetamido)ethyl)pyridin-3-yl)-2-fluorobenzamide]	37 µM	97%	–	–	–
O=C(Cn1nc(C(F)F)c2c1C1CC1CC2)NC(Cc1cc(F)cc(F)c1)c1ncncc1-c1cnc2[nH]ccc2c1 (single isomer, unassigned) [Example 347]	19.4 µM	1%	–	–	–
CC(C)CC(C(=O)N[C@@H](Cc1cc(F)cc(F)c1)c1ncccc1-c1ccc(F)c(C(N)=O)c1)n1ccc(C(F)(F)F)n1 (single isomer, unassigned) [Example 582]	14.4 µM	5%	–	–	–
CCC(C(=O)N[C@@H](Cc1cc(F)cc(F)c1)c1ncccc1-c1ccc(F)c(C(N)=O)c1)n1cc(C(C)=O)c2ccccc21 (stereo partly drawn) [Example 554, 5-(2-((1S)-1-(2-(3-acetyl-1H-indol-1-yl)butanamido)-2-(3,5-difluorophenyl)ethyl)pyridin-3-yl)-2-fluorobenzamide]	48.9 µM	63%	–	–	–
CCC(C(=O)N[C@@H](Cc1cc(F)cc(F)c1)c1ncccc1-c1ccc(F)c(C(N)=O)c1)n1ccc(C(F)(F)F)n1 (single isomer, unassigned) [Example 573]	30.1 µM	18%	–	–	–
CCC(C(=O)N[C@@H](Cc1cc(F)cc(F)c1)c1ncccc1-c1ccc(F)c(C(N)=O)c1)n1nc(C(F)F)cc1C(F)F (single isomer, unassigned) [Example 484]	27.4 µM	25%	–	–	–
NC(=O)c1cccc(-c2cccnc2[C@H](Cc2cc(F)cc(F)c2)NC(=O)CC2C(=O)Nc3ccccc32)c1 (stereo partly drawn) [Example 192, 3-(2-((1S)-2-(3,5-difluorophenyl)-1-(2-(2-oxoindolin-3-yl)acetamido)ethyl)pyridin-3-yl)benzamide]	47.6 µM	2%	–	–	–
(S)—N-(1-(3-(4-(pyrrolidinylcarbonylamino)phenyl)-pyridin-2-yl)-2-(3,5-difluorophenyl)ethyl)-2-(3-(difluoromethyl)-5,6-dihydro-4,5-(methano)-6,6-difluoro-cyclopenta[c]pyrazol-1(4H)-yl)acetamide [Example 80]	> 53.2 µM	0%	–	–	–
CCC(C(=O)N[C@@H](Cc1cc(F)cc(F)c1)c1ncccc1-c1ccc(F)c(C(N)=O)c1)n1ccnc1C(C)C (single isomer, unassigned) [Example 586]	> 53.2 µM	1%	–	–	–
CCCCC(C(=O)N[C@@H](Cc1cc(F)cc(F)c1)c1ncccc1-c1ccc(F)c(C(N)=O)c1)n1ccc(C(F)(F)F)n1 (single isomer, unassigned) [Example 488]	12.4 µM	8%	–	–	–
CCC(C(=O)N[C@@H](Cc1cc(F)cc(F)c1)c1ncccc1-c1ccc(F)c(C(N)=O)c1)n1cc(C(C)=O)c2ccccc21 (stereo partly drawn) [Example 544, 5-(2-((1S)-1-(2-(3-acetyl-1H-indol-1-yl)butanamido)-2-(3,5-difluorophenyl)ethyl)pyridin-3-yl)-2-fluorobenzamide]	> 53.2 µM	75%	–	–	–
NC(=O)c1cc(-c2cccnc2[C@H](Cc2cc(F)cc(F)c2)NC(=O)Cc2c[nH]c3ccc(Br)cc23)ccc1F [Example 445, (S)-5-(2-(1-(2-(5-bromo-1H-indol-3-yl)acetamido)-2-(3,5-difluorophenyl)ethyl)pyridin-3-yl)-2-fluorobenzamide]	–	–	10700 nM	114%	–
NS(=O)(=O)c1cccc(-c2cccnc2[C@H](Cc2cc(F)cc(F)c2)NC(=O)Cc2c[nH]c3ccc(O)cc23)c1 [Example 44, (S)—N-(2-(3,5-difluorophenyl)-1-(3-(3-sulfamoylphenyl)pyridin-2-yl)ethyl)-2-(5-hydroxy-1H-indol-3-yl)acetamide]	–	–	> 52500 nM	96%	–
O=C(Cc1c[nH]c2ccc(O)cc12)N[C@@H](Cc1cc(F)cc(F)c1)c1ncccc1-c1cccc(-c2nnn[nH]2)c1 [Example 49]	–	–	562 nM	0%	–
CC(C)c1cc(C(=O)NC2CC2)n(CC(=O)N[C@@H](Cc2cc(F)cc(F)c2)c2ncccc2-c2ccc(F)c(C(N)=O)c2)n1 [Example 520, (S)-1-(2-(1-(3-(3-carbamoyl-4-fluorophenyl)pyridin-2-yl)-2-(3,5-difluorophenyl)ethylamino)-2-oxoethyl)-N-cyclopropyl-3-isopropyl-1H-pyrazole-5-carboxamide]	–	–	> 53200 nM	30%	–
CCOc1ccc(-c2cccnc2[C@H](Cc2cc(F)cc(F)c2)NC(=O)Cn2nc(C(F)F)c3c2C(F)(F)C2CC32)cc1 (stereo partly drawn) [Example 247, 2-(3-(difluoromethyl)-5,5-difluoro-3b,4,4a,5-tetrahydro-1H-cyclopropa[3,4]cyclopenta[1,2-c]pyrazol-1-yl)-N—((S)-2-(3,5-difluorophenyl)-1-(3-(4-ethoxyphenyl)pyridin-2-yl)ethyl)acetamide]	–	–	26300 nM	39%	–
O=C(Cn1nc(C(F)F)c2c1C(F)(F)C1CC21)N[C@@H](Cc1cc(F)cc(F)c1)c1ncccc1-c1cnc2cc[nH]c2c1 (stereo partly drawn) [Example 77, (S)—N-(1-(3-(1H-pyrrolo[3,2-b]pyridine-6-yl)-pyridin-2-yl)-2-(3,5-difluorophenyl)ethyl)-2-(3-(difluoromethyl)-5,6-dihydro-4,5-(methano)-6,6-difluoro-cyclopenta[c]pyrazol-1(4H)-yl)acetamide]	–	–	12400 nM	65%	–
NC(=O)c1cc(-c2cccnc2[C@H](Cc2cc(F)cc(F)c2)NC(=O)C(c2ccccc2)C2CCCC2)ccc1F (single isomer, unassigned) [Example 515]	–	0%	9460 nM	–	–
NC(=O)c1cc(-c2cccnc2[C@H](Cc2cccc(F)c2)NC(=O)Cn2nc(C(F)(F)F)c3c2CCCC3)ccc1F [Example 229, (S)-2-fluoro-5-(2-(2-(3-fluorophenyl)-1-(2-(3-(trifluoromethyl)-4,5,6,7-tetrahydro-1H-indazol-1-yl)acetamido)ethyl)pyridin-3-yl)benzamide]	–	–	18600 nM	95%	–
CC(=O)c1c(C)n(CC(=O)N[C@@H](Cc2cc(F)cc(F)c2)c2ncccc2-c2ccc(Cl)cc2)c2ccccc12 [Example 486, (S)-2-(3-acetyl-2-methyl-1H-indol-1-yl)-N-(1-(3-(4-chlorophenyl)pyridin-2-yl)-2-(3,5-difluorophenyl)ethyl)acetamide]	–	–	–	76%	7080 nM
CC(C)C(C(=O)N[C@@H](Cc1cc(F)cc(F)c1)c1ncccc1-c1ccc(F)c(C(N)=O)c1)n1ccc(C(F)(F)F)n1 (single isomer, unassigned) [Example 479]	–	–	26400 nM	2%	–
NC(=O)c1cc(-c2cccnc2[C@H](Cc2cccc(F)c2)NC(=O)Cn2nc(C(F)(F)F)c3c2CCSC3)ccc1F [Example 228B, (S)-2-fluoro-5-(2-(2-(3-fluorophenyl)-1-(2-(3-(trifluoromethyl)-6,7-dihydrothiopyrano[4,3-c]pyrazol-1(4H)-yl)acetamido)ethyl)pyridin-3-yl)benzamide]	–	–	23400 nM	51%	–
Cc1cc(-c2cccnc2[C@H](Cc2cc(F)cc(F)c2)NC(=O)Cn2nc(C(F)(F)F)c3c2CCCC3)cnc1F [Example 89, (S)—N-(2-(3,5-difluorophenyl)-1-(6′-fluoro-5′-methyl-3,3′-bipyridin-2-yl)ethyl)-2-(3-(trifluoromethyl)-4,5,6,7-tetrahydro-1H-indazol-1-yl)acetamide]	–	–	10700 nM	73%	–
Cc1c(C(F)F)nn(CC(=O)N[C@@H](Cc2cc(F)cc(F)c2)c2ncccc2-c2ccc(F)c(C(N)=O)c2)c1C(F)F [Example 493, (S)-5-(2-(1-(2-(3,5-bis(difluoromethyl)-4-methyl-1H-pyrazol-1-yl)acetamido)-2-(3,5-difluorophenyl)ethyl)pyridin-3-yl)-2-fluorobenzamide]	–	–	33900 nM	48%	–
NC(=O)c1cc(-c2cccnc2[C@H](Cc2cc(F)cc(F)c2)NC(=O)Cn2nc(-n3cccn3)ccc2=O)ccc1F [Example 147, (S)-5-(2-(2-(3,5-difluorophenyl)-1-(2-(6-oxo-3-(1H-pyrazol-1-yl)pyridazin-1(6H)-yl)acetamido)ethyl)pyridin-3-yl)-2-fluorobenzamide]	–	–	> 53200 nM	10%	–
NC(=O)c1cc(-c2cccnc2[C@H](Cc2cc(F)cc(F)c2)NC(=O)Cn2nc(OCc3ncccn3)c3c2CCCC3)ccc1F [Example 142C, (S)-5-(2-(2-(3,5-difluorophenyl)-1-(2-(3-(pyrimidin-2-ylmethoxy)-4,5,6,7-tetrahydro-1H-indazol-1-yl)acetamido)ethyl)pyridin-3-yl)-2-fluorobenzamide]	–	–	> 53200 nM	23%	–
Cc1cc(=O)n(CC(=O)N[C@@H](Cc2cc(F)cc(F)c2)c2ncccc2-c2ccnc(C(N)=O)c2)c2ccccc12 [Example 362, (S)-2-(2-(3,5-difluorophenyl)-1-(2-(4-methyl-2-oxoquinolin-1(2H)-yl)acetamido)ethyl)-3,4′-bipyridine-2′-carboxamide]	–	–	> 53000 nM	23%	–
